From patent US7741124B2, “Detection procedures for fibrinogen and/or fibrinogen derivatives” (priority 2003, dated 2010) come the findings set out here.

The pIC50 is −log10 of the IC50, conventionally taken in molar units.

Structures are written as SMILES. pIC50: −log10 of the molar value.

Holding throughout (type): biochemical
Assay [1] has as its system t-PA. Kind of assay: Stimulation of t-PA by vancomycin-precipitated plasma, plasma system. As for the experimental part:
25 μl P-Pool were incubated with 25 μl 0-50 mM vancomycin in PBS and 50 μl 1000 IU/ml t-PA in PBS, 0.1% Triton X 100® and 25 μl 0 mM or 15 mM chloramine-T® for 30 min (RT). Then 25 μl 2.7 mM Vai-Leu-Lys-pNA, 1.7 M KCl were added and the resulting plasmin activity was determined by measuring linear absorbance increase/min RT in a microtiterplate reader.

Assay [2] addresses T1, fibrinogen in human plasma (Homo sapiens, UniProt P02671+P02675+P02679).
T1 construct: 200 μl of 256% of norm active fibrinogen in P-Pool; from tissue; host or cells: pooled citrated human patient plasma (P-Pool / Fbgen-Pool)
T1 sequence (P02671 20-629 isoform P02671-2 limits assumed): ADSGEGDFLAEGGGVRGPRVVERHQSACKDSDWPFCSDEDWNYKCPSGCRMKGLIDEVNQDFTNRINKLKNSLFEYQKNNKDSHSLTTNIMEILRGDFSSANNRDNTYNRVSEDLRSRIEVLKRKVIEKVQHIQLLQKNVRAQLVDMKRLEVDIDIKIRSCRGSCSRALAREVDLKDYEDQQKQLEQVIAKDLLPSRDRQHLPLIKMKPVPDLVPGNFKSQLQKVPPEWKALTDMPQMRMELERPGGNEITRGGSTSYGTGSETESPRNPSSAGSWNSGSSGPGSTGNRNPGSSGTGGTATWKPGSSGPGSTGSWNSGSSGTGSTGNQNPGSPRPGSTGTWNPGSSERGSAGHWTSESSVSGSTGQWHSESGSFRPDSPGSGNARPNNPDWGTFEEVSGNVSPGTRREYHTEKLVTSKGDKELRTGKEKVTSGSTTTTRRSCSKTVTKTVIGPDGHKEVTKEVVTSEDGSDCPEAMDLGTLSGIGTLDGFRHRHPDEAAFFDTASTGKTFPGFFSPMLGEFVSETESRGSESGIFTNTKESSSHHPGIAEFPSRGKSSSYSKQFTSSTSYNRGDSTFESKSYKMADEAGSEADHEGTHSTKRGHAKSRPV
T1 sequence (P02675 31-491): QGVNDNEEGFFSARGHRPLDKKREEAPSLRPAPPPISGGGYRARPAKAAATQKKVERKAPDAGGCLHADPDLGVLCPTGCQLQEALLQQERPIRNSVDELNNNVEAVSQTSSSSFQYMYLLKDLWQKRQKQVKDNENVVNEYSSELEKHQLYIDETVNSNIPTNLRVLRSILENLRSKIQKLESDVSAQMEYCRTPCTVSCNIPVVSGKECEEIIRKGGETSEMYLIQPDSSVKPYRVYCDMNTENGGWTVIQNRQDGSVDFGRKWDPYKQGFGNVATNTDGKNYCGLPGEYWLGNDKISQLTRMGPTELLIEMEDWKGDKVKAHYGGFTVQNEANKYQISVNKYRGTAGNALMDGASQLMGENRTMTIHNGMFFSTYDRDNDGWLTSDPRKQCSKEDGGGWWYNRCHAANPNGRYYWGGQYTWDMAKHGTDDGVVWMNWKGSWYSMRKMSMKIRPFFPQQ
T1 sequence (P02679 27-437 isoform P02679-2 limits assumed): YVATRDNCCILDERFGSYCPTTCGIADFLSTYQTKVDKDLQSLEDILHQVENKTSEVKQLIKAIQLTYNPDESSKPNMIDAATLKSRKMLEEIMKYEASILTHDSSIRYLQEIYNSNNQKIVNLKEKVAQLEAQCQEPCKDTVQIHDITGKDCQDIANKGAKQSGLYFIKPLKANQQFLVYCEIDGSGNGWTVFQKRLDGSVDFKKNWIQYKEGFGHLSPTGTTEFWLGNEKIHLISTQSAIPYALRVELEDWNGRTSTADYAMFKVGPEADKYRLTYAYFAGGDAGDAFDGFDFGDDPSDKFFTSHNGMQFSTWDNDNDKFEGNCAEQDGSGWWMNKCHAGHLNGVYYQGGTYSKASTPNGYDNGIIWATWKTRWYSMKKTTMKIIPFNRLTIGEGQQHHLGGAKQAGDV
Kind of assay: Inactivation of fibrinogen by vancomycin or chloramine-T (FIFTA read-out). As for the experimental part:
200 μl of 256% of norm active fibrinogen in P-Pool were incubated with 25 μl 0-100 mM vancomycin or 0-100 mM chloramine-T® in aqua dest. for 15 min (37° C.). 50 μl samples of these reaction mixtures were withdrawn and incubated with 100 μl 200 mIU/ml thrombin, 400 μg/ml Polybrene®, 6% BSA-PBS. The results were standardized by simultaneous analysis of 144% of norm active fibrinogen in P-Pool.

The subject of assay [3] is β2 fraction (fibrinogen) of plasma. Nature of the assay: Electrophoresis of plasma that had been incubated with vancomycin. As for the experimental part: 950 μl P-Pool were incubated with 50 μl 0-200 mM (0-10 mM final conc.) vancomycin for 5 min (RT). Then electrophoreses of the samples and of the solubilized precipitate of 2.10. were performed and the total protein concentrations in the treated samples were determined.

Take `CN[C@H](CC(C)C)C(=O)N[C@H]1C(=O)N[C@@H](CC(N)=O)C(=O)N[C@H]2C(=O)N[C@H]3C(=O)N[C@H](C(=O)N[C@H](C(=O)O)c4cc(O)cc(O)c4-c4cc3ccc4O)[C@H](O)c3ccc(c(Cl)c3)Oc3cc2cc(c3O[C@@H]2O[C@H](CO)[C@@H](O)[C@H](O)[C@H]2O[C@H]2C[C@](C)(N)[C@H](O)[C@H](C)O2)Oc2ccc(cc2Cl)[C@H]1O` [vancomycin]: the “stimulation of t-PA” value in assay [1] (1 part plasma with 1 part 1.5-5 mM vancomycin, oxidation with 1 part 15 mM chloramine-T) was “up to 20 fold”. For the same molecule, the “increase of t-PA activity” value in assay [1] (without oxidation, 2 mM vancomycin, final incubation 158 min (RT)) was 2.5 fold. The negative-log IC50 (pIC50) in assay [2] is ~3.00. Also, the β2 fraction is given as 10.6% in assay [3] (0.29 mM vancomycin); 10.4% in assay [3] (0.44 mM vancomycin); 8.0% in assay [3] (0.66 mM vancomycin); 6.4% in assay [3] (0.99 mM vancomycin); 5.2% in assay [3] (1.48 mM vancomycin); 5.5% in assay [3] (2.22 mM vancomycin). Further, the β2 fraction in assay [3] (5 mM vancomycin) and in assay [3] (10 mM vancomycin) was 0% in each case.
